Laboratory results from patent publication US20050009005A1, “Methods of using quantitative lipid metabolome data” (Lipomics Technologies, Inc., priority 2001, published 2005).
Like-named read-outs stand apart in the source and are kept apart here.

Test system: de novo fatty acid synthesis
[1] = Adipose, CE, mean of treated mice
[2] = Adipose, FFA, mean of treated mice
[3] = Adipose, PL, mean of treated mice
[4] = Adipose, TAG, mean of treated mice
[5] = Heart, CE, mean of treated mice

CN(CCOc1ccc(CC2SC(=O)NC2=O)cc1)c1ccccn1 (stereo not shown) [rosiglitazone]
14:0 (Adipose, CE, mean): 3.8 percentage of total fatty acids within each lipid class | 16:0 (Adipose, CE, mean): 10.9 percentage of total fatty acids within each lipid class | 16:1n7 (Adipose, CE, mean): 7.1 percentage of total fatty acids within each lipid class | 18:0 (Adipose, CE, mean): 3.8 percentage of total fatty acids within each lipid class | 18:1n7 (Adipose, CE, mean): 1.3 percentage of total fatty acids within each lipid class | 18:1n9 (Adipose, CE, mean): 31.8 percentage of total fatty acids within each lipid class | Saturates (Adipose, CE, mean): 24.3 percentage of total fatty acids within each lipid class | Total (Adipose, CE, mean): 100.0 percentage of total fatty acids within each lipid class | Total n7 (Adipose, CE, mean): 8.4 percentage of total fatty acids within each lipid class | Total n9 (Adipose, CE, mean): 33.7 percentage of total fatty acids within each lipid class | 14:0 [1]: 131.5 nanomoles per gram | 16:0 [1]: 361.1 nanomoles per gram | 16:1n7 [1]: 248.8 nanomoles per gram | 18:0 [1]: 128.3 nanomoles per gram | 18:1n7 [1]: 44.3 nanomoles per gram | 18:1n9 [1]: 1135.7 nanomoles per gram | Saturates [1]: 833.5 nanomoles per gram | Total n7 [1]: 293.1 nanomoles per gram | Total n9 [1]: 1202.9 nanomoles per gram | Total nMole of [1]: 3405.8 nanomoles per gram | 14:0 (Adipose, FFA, mean): 3.0 percentage of total fatty acids within each lipid class | 16:0 (Adipose, FFA, mean): 16.7 percentage of total fatty acids within each lipid class | 16:1n7 (Adipose, FFA, mean): 8.0 percentage of total fatty acids within each lipid class | 18:0 (Adipose, FFA, mean): 3.6 percentage of total fatty acids within each lipid class | 18:1n7 (Adipose, FFA, mean): 3.4 percentage of total fatty acids within each lipid class | 18:1n9 (Adipose, FFA, mean): 30.4 percentage of total fatty acids within each lipid class | Saturates (Adipose, FFA, mean): 23.9 percentage of total fatty acids within each lipid class | Total (Adipose, FFA, mean): 100.0 percentage of total fatty acids within each lipid class | Total n9 (Adipose, FFA, mean): 30.8 percentage of total fatty acids within each lipid class | 14:0 [2]: 391.9 nanomoles per gram | 16:0 [2]: 2241.1 nanomoles per gram | 16:1n7 [2]: 1073.7 nanomoles per gram | 18:0 [2]: 487.0 nanomoles per gram | 18:1n7 [2]: 461.5 nanomoles per gram | 18:1n9 [2]: 4055.1 nanomoles per gram | Saturates [2]: 3203.6 nanomoles per gram | Total n7 [2]: 1535.2 nanomoles per gram | Total n9 [2]: 4117.3 nanomoles per gram | Total nMole of [2]: 13373.4 nanomoles per gram | 14:0 (Adipose, PL, mean): 1.6 percentage of total fatty acids within each lipid class | 16:0 (Adipose, PL, mean): 18.8 percentage of total fatty acids within each lipid class | 16:1n7 (Adipose, PL, mean): 3.6 percentage of total fatty acids within each lipid class | 18:0 (Adipose, PL, mean): 13.7 percentage of total fatty acids within each lipid class | 18:1n7 (Adipose, PL, mean): 2.8 percentage of total fatty acids within each lipid class | 18:1n9 (Adipose, PL, mean): 18.0 percentage of total fatty acids within each lipid class | Saturates (Adipose, PL, mean): 36.3 percentage of total fatty acids within each lipid class | Total (Adipose, PL, mean): 100.0 percentage of total fatty acids within each lipid class | Total n7 (Adipose, PL, mean): 6.5 percentage of total fatty acids within each lipid class | Total n9 (Adipose, PL, mean): 19.2 percentage of total fatty acids within each lipid class | 14:0 [3]: 152.1 nanomoles per gram | 16:0 [3]: 1706.0 nanomoles per gram | 16:1n7 [3]: 338.8 nanomoles per gram | 18:0 [3]: 1240.0 nanomoles per gram | 18:1n7 [3]: 261.8 nanomoles per gram | 18:1n9 [3]: 1679.9 nanomoles per gram | Saturates [3]: 3281.6 nanomoles per gram | Total n7 [3]: 600.6 nanomoles per gram | Total n9 [3]: 1787.7 nanomoles per gram | Total nMole of [3]: 4559.5 nanomoles per gram | 14:0 (Adipose, TAG, mean): 1.8 percentage of total fatty acids within each lipid class | 16:0 (Adipose, TAG, mean): 22.5 percentage of total fatty acids within each lipid class | 16:1n7 (Adipose, TAG, mean): 7.3 percentage of total fatty acids within each lipid class | 18:0 (Adipose, TAG, mean): 1.5 percentage of total fatty acids within each lipid class | 18:1n7 (Adipose, TAG, mean): 3.2 percentage of total fatty acids within each lipid class | 18:1n9 (Adipose, TAG, mean): 30.5 percentage of total fatty acids within each lipid class | Saturates (Adipose, TAG, mean): 26.2 percentage of total fatty acids within each lipid class | Total (Adipose, TAG, mean): 100.0 percentage of total fatty acids within each lipid class | Total n7 (Adipose, TAG, mean): 10.5 percentage of total fatty acids within each lipid class | Total n9 (Adipose, TAG, mean): 30.8 percentage of total fatty acids within each lipid class | 14:0 [4]: 52712.2 nanomoles per gram | 16:0 [4]: 650079.8 nanomoles per gram | 16:1n7 [4]: 210006.6 nanomoles per gram | 18:0 [4]: 43888.4 nanomoles per gram | 18:1n7 [4]: 93310.6 nanomoles per gram | 18:1n9 [4]: 880178.1 nanomoles per gram | Saturates [4]: 755758.5 nanomoles per gram | Total n7 [4]: 303317.2 nanomoles per gram | Total n9 [4]: 891269.3 nanomoles per gram | Total nMole of [4]: 962282.9 nanomoles per gram | 14:0 (Heart, CE, mean): 4.3 percentage of total fatty acids within each lipid class | 16:0 (Heart, CE, mean): 14.6 percentage of total fatty acids within each lipid class | 16:1n7 (Heart, CE, mean): 3.4 percentage of total fatty acids within each lipid class | 18:0 (Heart, CE, mean): 6.4 percentage of total fatty acids within each lipid class | 18:1n7 (Heart, CE, mean): 1.3 percentage of total fatty acids within each lipid class | 18:1n9 (Heart, CE, mean): 25.5 percentage of total fatty acids within each lipid class | 14:0 [5]: 56.4 nanomoles per gram | 16:0 [5]: 198.8 nanomoles per gram | 16:1n7 [5]: 45.4 nanomoles per gram | 18:0 [5]: 89.0 nanomoles per gram | 18:1n7 [5]: 19.3 nanomoles per gram | 18:1n9 [5]: 370.9 nanomoles per gram | Saturates [5]: 379.2 nanomoles per gram | Total n7 [5]: 64.8 nanomoles per gram | Total n9 [5]: 383.4 nanomoles per gram | Total nMole of [5]: 1358.5 nanomoles per gram | 14:0 (Heart, CL, mean): 0.2 percentage of total fatty acids within each lipid class | 16:0 (Heart, CL, mean): 1.3 percentage of total fatty acids within each lipid class
